For experiment [1], the system named is peptide-forming enzyme (Mono S fraction enzyme). In words: Enzyme substrate specificity (1)-(10), (13), (14): peptide production. It counts as biochemical, Empedobacter brevis. Also on record: key to Formed peptide: +: those peptides for which production was confirmed but which were unable to be quantified due to the absence of a standard; a trace amount. Conditions: pH 9.0, 25° C., 3 hours; for Produced peptide: L-amino acid ester 100 mM, peptide (amine component) 150 mM. Here is the method:
Ester specificity was examined in the case of using L-amino acid ester for the carboxy component. 2 μl of the same enzyme fraction as used in Example 5 was added to 100 μl of 100 mM borate buffer (pH 9.0) containing the carboxy components indicated in Table 4 at 100 mM, 200 mM L-glutamine and 10 mM EDTA, and allowed to react at 25° C. for 2 hours. HCl represents hydrochloride in Table 4.
Peptide production was examined in the case of using L-alanine methyl ester for the carboxy component and using various L-amino acids for the amine component.
Peptide production was examined in the case of using various types of L-amino acid methyl esters for the carboxy component and using L-glutamine for the amine component. 2 μl of the same enzyme fraction as used in Example 5 was added to 100 μl of 100 mM borate buffer (pH 9.0) containing the L-amino acid methyl ester hydrochloride salts (AA-OMe.HCl) shown in Table 6 at 100 mM, 150 mM L-glutamine and 10 mM EDTA, and allowed to react at 25° C. for 3 hours. […] Furthermore, Tween-80 was added to the reaction system to a final concentration of 0.1% in the case of using L-Trp-OMe and L-Tyr-OMe.
Peptide production was examined in the case of using various L-amino acid methyl esters for the carboxy component and various L-amino acids for the amine component. 2 μl of the same enzyme fraction as used in Example 5 was added to 100 μl of 100 mM borate buffer (pH 9.0) containing the L-amino acid methyl ester hydrochloride salts (AA-OMe.HCl) shown in Table 7 at 100 mM, the L-amino acids shown in Table 7 at 150 mM and 10 mM EDTA, and allowed to react at 25° C. for 3 hours. The “tr” indicates a trace amount. Furthermore, Tween-80 was added to the reaction system to a final concentration of 0.1% in the case of using L-Trp-OMe.
Peptide production was examined in the case of using the L or D forms of various amino acid methyl esters for the carboxy component, and the L or D forms of various amino acids for the amine component. 2 μl of the same enzyme fraction as used in Example 5 was added to 100 μl of 100 mM borate buffer (pH 9.0) containing the various amino acid methyl ester hydrochloride salts (AA-OMe HCl) shown in Table 8 at 100 mM, the various amino acids shown in Table 8 at 150 mM and 10 mM EDTA, and allowed to react at 25° C. for 3 hours. The “tr” indicates a trace amount.
Peptide production was examined using various L-amino acid amides for the carboxy component, and various L-amino acids for the amine component. 2 μl of the same enzyme fraction as that used in Example 5 was added to 100 μl of 100 mM borate buffer (pH 9.0) containing the L-amino acid amide hydrochloride salt (M-NH2.HCl) shown in Table 9 at 100 mM, the L-amino acids shown in Table 9 at 150 mM and 10 mM EDTA, and allowed to react at 25° C. for 3 hours.
Peptide production was examined in the case of using various L-alanine methyl esters for the carboxy component and C-protected L-amino acids for the amine component. 2 μl of the same enzyme fraction as used in Example 5 was added to 100 μl of 100 mM borate buffer (pH 9.0) containing the L-alanine methyl ester hydrochloride hydrochloride salt (Ala-OMe.HCl) shown in Table 10 at 100 mM, the L-amino acid amide hydrochloride salts shown in Table 10 at 150 mM and 10 mM EDTA, and allowed to react at 25° C. for 3 hours.
Peptide production was examined in the case of using various amino acid methyl esters for the carboxy component and methylamine for the amine component. 2 μl of the same enzyme fraction as used in Example 5 was added to 100 μl of 100 mM borate buffer (pH 9.0) containing the amino acid methyl ester hydrochloride salt (M-OMe.HCl) shown in Table 11 at 100 mM, the methylamine shown in Table 11 at 150 mM and 10 mM EDTA, and allowed to react at 25° C. for 3 hours.
Peptide production was examined in the case of using […] for the carboxy component or β-amino acid for the amine component.

The test system of experiment [2] is enzyme derived from Sphingobacterium sp. strain FERM BP-8124 (SP-Sepharose HP fraction enzyme). Put plainly: Enzyme substrate specificity (11), (12): peptide production. Also on record: key to Produced peptide (Table 15-1) / Produced peptide (Table 15-3) / Produced peptide (Table 15-4): +: those peptides for which production was confirmed but which were unable to be quantified due to the absence of a standard; a trace amount. Conditions: carboxy component 100 mM, 0.33 units enzyme, pH 9.0, 25° C., 1.5 hours; for Produced peptide (Table 15-2): L-Gln 150 mM; for Produced peptide (Table 15-1) / Produced peptide (Table 15-3) / Produced peptide (Table 16, oligopeptide): amine component 150 mM. It counts as biochemical. An excerpt:
Substrate specificity was examined for enzyme derived from Sphingobacterium sp. strain FERM BP-8124 (Depositary institution: the independent administrative corporation, National Institute of Advanced Industrial Science and Technology, International Patent Organism Depositary, Address of depositary institution: Chuo Dai-6, 1-1 Higashi 1-Chome, Tsukuba-shi, Ibaraki-ken, Japan, International deposit date: […] The amounts of various peptides formed in this reaction are shown in Table 15. The “+” mark indicates those peptides for which production was confirmed but which were unable to be quantified due to the absence of a standard, while “tr” indicates a trace amount. Furthermore, Tween-80 was added to the reaction system to a final concentration of 0.1% in the case of using L-Tyr-OMe. In addition, hydrochloride salts were used for all carboxy components. Substrate specificity with respect to oligopeptide production was examined for enzyme derived from Sphingobacterium sp. strain FERM BP-8124 (Depositary institution: the independent administrative corporation, National Institute of Advanced Industrial Science and Technology, International Patent Organism Depositary, Address of depositary institution: Chuo Dai-6, 1-1 Higashi 1-Chome, Tsukuba-shi, Ibaraki-ken, Japan, International deposit date: […] The amounts of each oligopeptide formed in this reaction are shown in Table 16. Furthermore, hydrochloride salts were used for all the carboxy components.

Setting [3] is: L-amino acid methyl ester hydrochloride 100 mM, 150 mM L-glutamine.
Setting [4] is: 100 mM L-alanine methyl ester hydrochloride, L-amino acid 150 mM.
[5] abbreviates: L-amino acid methyl ester hydrochloride 100 mM, L-amino acid 150 mM.

Where a SMILES comes first, the peptide text is derived from it.

For `C[C@@H](O)[C@H](N)C(=O)N[C@@H](CCC(N)=O)C(=O)O` [L-Thr-L-Gln] (H-Thr-Gln-OH), the Formed peptide in experiment [1] (L-amino acid amide hydrochloride as carboxy component 100 mM, L-amino acid 150 mM) came to 0.3 mM; in experiment [1] (setting [3]) it was 81.9 mM. In addition, the “Produced peptide (Table 15-2)” value in experiment [2] is given as 36.1 mM.

Consider `C[C@H](N)C(=O)N[C@@H](Cc1ccc(O)cc1)C(=O)O` [L-Ala-L-Tyr] (H-Ala-Tyr-OH), for which the Formed peptide in experiment [1] (setting [4]) stood at 17.6 mM. In addition, the “Produced peptide (Table 15-1)” value in experiment [2] worked out at 11.1 mM.

Regarding `CC(C)[C@H](N)C(=O)N[C@@H](Cc1ccccc1)C(=O)O` [L-Val-L-Phe] (H-Val-Phe-OH), in experiment [1] (setting [5]), the Formed peptide was determined as 6.1 mM. Moreover, the “Produced peptide (Table 15-3)” value in experiment [2] is listed as 1.0 mM.

In experiment [1] (setting [4]), `C[C@H](N)C(=O)NCC(=O)O` [L-Ala-Gly] (H-Ala-Gly-OH) displayed a Formed peptide of 13.7 mM. Besides, the “Produced peptide (Table 15-1)” value in experiment [2] worked out at 11.1 mM.

Consider L-Ala-L-Phe-Gly, for which, in experiment [1], the Produced peptide turned out to be 43.7 mM. Also, in experiment [2], the “Produced peptide (Table 16, oligopeptide)” value is on record as 34.0 mM.

In experiment [1] (setting [3]), `NC(=O)CC[C@H](NC(=O)[C@@H](N)Cc1ccc(O)cc1)C(=O)O` [L-Tyr-L-Gln] (H-Tyr-Gln-OH) showed a Formed peptide of 3.4 mM. The “Produced peptide (Table 15-2)” value in experiment [2] worked out at 0.6 mM.

For the compound L-Ala-L-His-L-Ala, the Produced peptide in experiment [1] stood at 55.9 mM. The “Produced peptide (Table 16, oligopeptide)” value in experiment [2] came out at 58.0 mM.

For `C[C@H](N)C(=O)N[C@@H](CC(=O)O)C(=O)O` [L-Ala-L-Asp] (H-Ala-Asp-OH), the Formed peptide in experiment [1] (setting [4]) is given as 2.1 mM. For the same compound, the “Produced peptide (Table 15-1)” value in experiment [2] is given as 2.3 mM.

With `CC(C)[C@H](N)C(=O)N[C@@H](CO)C(=O)O` [L-Val-L-Ser] (H-Val-Ser-OH), the Formed peptide in experiment [1] (setting [5]) worked out at 30.8 mM. For the same compound, the “Produced peptide (Table 15-3)” value in experiment [2] is 31.9 mM.

In experiment [1] (setting [4]), `CC[C@H](C)[C@H](NC(=O)[C@H](C)N)C(=O)O` [L-Ala-L-Ile] (H-Ala-Ile-OH) yielded a Formed peptide of 33.9 mM. Also, the “Produced peptide (Table 15-1)” value in experiment [2] is given as 24.7 mM.

With `NCC(=O)N[C@@H](CCCN=C(N)N)C(=O)O` [Gly-L-Arg] (H-Gly-Arg-OH), the Formed peptide in experiment [1] (setting [5]) was 25.5 mM. Moreover, the “Produced peptide (Table 15-3)” value in experiment [2] was found to be 17.9 mM.

For `NCCCC[C@H](NC(=O)CN)C(=O)O` [Gly-L-Lys] (H-Gly-Lys-OH), the Formed peptide in experiment [1] (setting [5]) is recorded as 9.8 mM. Besides, the “Produced peptide (Table 15-3)” value in experiment [2] amounted to 48.2 mM.

Consider `C[C@H](N)C(=O)N[C@@H](Cc1c[nH]c2ccccc12)C(=O)O` [L-Ala-L-Trp] (H-Ala-Trp-OH), for which, in experiment [1] (setting [4]), the Formed peptide was found to be 53.9 mM. Moreover, in experiment [2], the “Produced peptide (Table 15-1)” value stood at 46.0 mM.

Take `C[C@H](N)C(=O)N[C@@H](CCC(=O)O)C(=O)O` [L-Ala-L-Glu] (H-Ala-Glu-OH): the Formed peptide in experiment [1] (setting [4]) was 42.9 mM. In experiment [2], the “Produced peptide (Table 15-1)” value was determined as 39.1 mM.

As to `C[C@H](N)C(=O)N[C@@H](CS)C(=O)O` [L-Ala-L-CySH] (H-Ala-Cys-OH), the Formed peptide result in experiment [1] (setting [4]) is “+”. Also, the “Produced peptide (Table 15-1)” value in experiment [2] was “+”.

With L-Ala-L-Leu-L-Ala, the Produced peptide in experiment [1] came to 48.3 mM. Further, the “Produced peptide (Table 16, oligopeptide)” value in experiment [2] is 40.7 mM.

In experiment [1] (setting [4]), `C[C@H](N)C(=O)N[C@H](C(=O)O)[C@@H](C)O` [L-Ala-L-Thr] (H-Ala-Thr-OH) gave a Formed peptide of 53.9 mM. Besides, in experiment [2], the “Produced peptide (Table 15-1)” value was 47.3 mM.

`CC(C)[C@H](NC(=O)[C@@H](N)[C@@H](C)O)C(=O)O` [L-Thr-L-Val] (H-Thr-Val-OH): the Formed peptide in experiment [1] (setting [5]) came out at 0.7 mM. Further, the “Produced peptide (Table 15-3)” value in experiment [2] is on record as 1.3 mM.

`CC[C@H](C)[C@H](N)C(=O)N[C@@H](Cc1ccccc1)C(=O)O` [L-Ile-L-Phe] (H-Ile-Phe-OH) returned a Formed peptide in experiment [1] (setting [5]) of 5.2 mM. The “Produced peptide (Table 15-3)” value in experiment [2] came out at 1.5 mM.

In turn, L-Ala-L-Ala-L-Ala-L-Ala-L-Ala showed a Produced peptide in experiment [1] of 34.8 mM. Further, the “Produced peptide (Table 16, oligopeptide)” value in experiment [2] is 22.8 mM.

With `C[C@H](N)C(=O)N[C@@H](CC(N)=O)C(=O)O` [L-Ala-L-Asn] (H-Ala-Asn-OH), the Formed peptide in experiment [1] (setting [4]) was determined as 65.5 mM. In experiment [2], the “Produced peptide (Table 15-1)” value was determined as 52.3 mM.

As to `C[C@H](NC(=O)[C@@H](N)[C@@H](C)O)C(=O)O` [L-Thr-L-Ala] (H-Thr-Ala-OH), in experiment [1] (setting [5]), the Formed peptide was determined as 9.4 mM. Further, in experiment [2], the “Produced peptide (Table 15-3)” value is listed as 5.8 mM.

On to `NC(N)=NCCC[C@H](N)C(=O)N[C@@H](CO)C(=O)O` [L-Arg-L-Ser] (H-Arg-Ser-OH), for which, in experiment [1] (setting [5]), the Formed peptide was 3.6 mM. In experiment [2], the “Produced peptide (Table 15-3)” value worked out at 2.2 mM.

In experiment [1] (setting [5]), `CC[C@H](C)[C@H](N)C(=O)N[C@@H](CO)C(=O)O` [L-Ile-L-Ser] (H-Ile-Ser-OH) showed a Formed peptide of 17.2 mM. The “Produced peptide (Table 15-3)” value in experiment [2] is 17.3 mM.

As for `NCC(=O)N[C@@H](Cc1ccccc1)C(=O)O` [Gly-L-Phe] (H-Gly-Phe-OH), in experiment [1] (setting [5]), the Formed peptide is 44.0 mM. Further, the “Produced peptide (oligopeptide)” value in experiment [1] (amount of enzyme 0.1 unit) stood at 17.3 mM. The “Produced peptide (Table 15-3)” value in experiment [2] is on record as 20.0 mM.

For the compound `C[C@@H](O)[C@H](N)C(=O)NCC(=O)O` [L-Thr-Gly] (H-Thr-Gly-OH), the Formed peptide in experiment [1] (setting [5]) was found to be 9.4 mM. Besides, the “Produced peptide (Table 15-3)” value in experiment [2] was 0.4 mM.

Turning to `C[C@H](N)C(=O)N[C@@H](CCCCN)C(=O)O` [L-Ala-L-Lys] (H-Ala-Lys-OH), the Formed peptide in experiment [1] (setting [4]) is listed as 71.8 mM. In addition, the “Produced peptide (Table 15-1)” value in experiment [2] was determined as 71.2 mM.

The compound `CSCC[C@H](NC(=O)[C@@H](N)[C@@H](C)O)C(=O)O` [L-Thr-L-Met] (H-Thr-Met-OH) showed a Formed peptide in experiment [1] (setting [5]) of 38.6 mM. The “Produced peptide (Table 15-3)” value in experiment [2] amounted to 28.9 mM.

Values taken from patent US20040204577A1, “Novel peptide-forming enzyme gene” (Ajinomoto Co., Inc., priority 2003, published 2004).
